Assay results taken from patent US11530244B2, “Cyclic polypeptides for PCSK9 inhibition” (priority 2018, dated 2022).
Starred links: 1 amine or outer side, 2 acyl side, 3 side chain; linkers in the order of their positions; H or OH if unused. Positions of bridges follow the written chain, without caps; N, C: chain ends. Non-standard residues stand in square brackets, D forms with d. Residues, ends and D or L forms follow the SMILES beside them. ξ: configuration not given here. Phe(3-CH2NH2) = O=C([C@H](Cc1cccc(CN[*:3])c1)N[*:1])[*:2]; NHCH2(1,3-C6H4)CH2CO = O=C(Cc1cccc(CN[*:1])c1)[*:2]; Phe(4-COOH) = N[C@@H](Cc1ccc(C(=O)O)cc1)C(=O)O; Trp(5-F) = N[C@@H](Cc1c[nH]c2ccc(F)cc12)C(=O)O; X30 = COc1ccc(C[C@H](N[*:1])C(=O)[*:2])cc1Cl; X11 = COc1ccc(C[C@H](N[*:1])C(=O)[*:2])cc1C; Asp(3,3-Me2) = CC(C)(C(=O)O)[C@H](N)C(=O)O; X17 = O=C(CCSCc1ccc(CSCCN[*:1])cc1)[*:2]; Pro(4S-NH2) = N[C@@H]1CN[C@H](C(=O)O)C1; X4 = O=C(CCSCc1cccc(CSCCN[*:1])c1)[*:2]; Orn(N3) = [N-]=[N+]=NCCC[C@H](N)C(=O)O; X23 = CC[C@@]1(C(=O)[*:2])CCCN1[*:1]; mXylylene = c1cc(C[*:1])cc(C[*:2])c1; AEF = NCCOc1ccc(C[C@H](N)C(=O)O)cc1; NMeY = CN[C@@H](Cc1ccc(O)cc1)C(=O)O; X47 = O=C(O)CCCCC(N[*:1])C(=O)[*:2]; d(aThr) = C[C@@H](O)[C@@H](N)C(=O)O; Glutaryl = O=C(CCCC(=O)[*:2])[*:1]; X21 = O=C(Cc1cccc(CN[*:2])c1)[*:1]; X39 = c1cc(CCSCN[*:2])cc(C[*:1])c1; X41 = O=C(Cc1ccc(N[*:1])cc1)[*:2]; X6 = O=C(Cc1ccc(CN[*:2])cc1)[*:1]; X7 = O=C(Cc1ccc(CN[*:1])cc1)[*:2]; hLys = NCCCCC[C@H](N)C(=O)O; αMeP = C[C@@]1(C(=O)O)CCCN1; ξD = NC(CC(=O)O)C(=O)O; Ava = NCCCCC(=O)O; Mpa = O=C(O)CCS

Tests used:
[1] = biological target: human PCSK9 / human LDLR EGFa domain interaction (Homo sapiens (Human), UniProt Q8NBP7); experiment: TR-FRET assay of inhibition of the PCSK9-LDLR protein-protein interaction; assay type: binding; conditions: TR-FRET, 20 nM human PCSK9, 20 nM human LDLR EGFa domain, 2 hours room temperature; read-out: IC50
Sequence of human PCSK9 / human LDLR EGFa domain interaction (Q8NBP7 153-692): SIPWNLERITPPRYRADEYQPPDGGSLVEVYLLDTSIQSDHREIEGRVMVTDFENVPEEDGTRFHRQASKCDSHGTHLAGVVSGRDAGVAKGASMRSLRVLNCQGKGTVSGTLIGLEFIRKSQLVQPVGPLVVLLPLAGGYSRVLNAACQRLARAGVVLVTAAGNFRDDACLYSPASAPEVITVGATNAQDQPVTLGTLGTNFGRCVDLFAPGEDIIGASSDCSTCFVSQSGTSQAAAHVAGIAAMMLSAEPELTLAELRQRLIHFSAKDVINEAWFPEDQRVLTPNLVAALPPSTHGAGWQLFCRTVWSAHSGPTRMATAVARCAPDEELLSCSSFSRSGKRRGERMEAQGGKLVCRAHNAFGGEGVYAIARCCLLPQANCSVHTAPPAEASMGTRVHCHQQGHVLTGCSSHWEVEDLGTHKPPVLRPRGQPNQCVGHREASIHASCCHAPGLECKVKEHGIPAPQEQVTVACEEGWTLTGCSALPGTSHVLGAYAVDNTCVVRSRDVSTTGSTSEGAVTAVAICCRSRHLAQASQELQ
Sequence of human PCSK9 / human LDLR EGFa domain interaction (Q8NBP7 31-152 partner): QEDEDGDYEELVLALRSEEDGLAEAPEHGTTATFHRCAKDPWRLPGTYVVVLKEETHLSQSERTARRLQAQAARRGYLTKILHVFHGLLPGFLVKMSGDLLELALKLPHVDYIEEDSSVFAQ
Summary of the method: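 Compounds in dose-response are mixed with 20 nM human PCSK9 (avitag-biotinylated) and 20 nM his-tagged LDLR EGFa domain, plus 5 nM each streptavidin-Ulight and Eu-anti-6×His. After 2 h at room temperature in HEPES/NaCl/CaCl2 buffer with BSA and P20, TR-FRET is read and IC50 fitted (4-parameter).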

[2] = biological target: PCSK9 (Homo sapiens (Human), UniProt Q8NBP7); experiment: PCSK9 Alexa FRET Standard assay (displacement of AlexaFluor647 tagged cyclic peptide Reagent A); assay type: binding; conditions: PCSK9 Alexa FRET Standard assay, 0.5 nM PCSK9, 20 nM AF cyclic peptide Reagent A; read-out: IC50
Sequence of PCSK9 (Q8NBP7 153-692): as the sequence (Q8NBP7 153-692) above
Summary of the method: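 TR-FRET displacement: 0.5 nM biotinylated PCSK9 with 1.25 nM Strep-Eu and 20 nM AlexaFluor-tagged cyclic peptide (final) in 50 mM HEPES pH 7.4, 0.15 M NaCl, 5 mM CaCl2, 0.01% BSA, 0.01% P20, ≥2 h at room temperature. IC50 from sigmoidal fit, converted to Ki via peptide KD; falling Eu counts flagged false positives.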

Compound | IC50 [1] [nM] | IC50 [2] [nM]
CC[C@@]12CCCN1C(=O)[C@H](Cc1ccc(O)cc1)NC(=O)[C@H](Cc1cnc[nH]1)NC(=O)[C@H](CC(=O)O)NC(=O)[C@H](Cc1c[nH]c3ccc(F)cc13)NC(=O)[C@H](Cc1c[nH]c3ccc(F)cc13)NC(=O)CNC(=O)[C@H](CCCCN)NC(=O)CCSCc1cccc(c1)CSC[C@@H](C(N)=O)NC2=O [Compound 378] ([Mpa]KG[Trp(5-F)][Trp(5-F)]DHY[X23]C-NH2; linker 1-10 via mXylylene) | 0.1 to 100 | 0.11 to 100
COc1ccc(C[C@@H]2NC(=O)[C@H](Cc3cnc[nH]3)NC(=O)[C@H](CC(=O)O)NC(=O)[C@H](Cc3c[nH]c4ccc(F)cc34)NC(=O)[C@H](Cc3c[nH]c4ccc(F)cc34)NC(=O)[C@@H](C)NC(=O)CCCCNC(=O)c3ccc(cc3)C[C@@H](C(N)=O)NC(=O)[C@]3(C)CCCN3C2=O)cc1 [Compound 380] ([Ava][dA][Trp(5-F)][Trp(5-F)]DHY(Me)[αMeP][Phe(4-COOH)]-NH2; lactam N-9) | 21000 to 50000 | 21000 to 50000
COc1ccc(C[C@@H]2NC(=O)[C@H](Cc3cnc[nH]3)NC(=O)[C@H](CC(=O)O)NC(=O)[C@H](Cc3c[nH]c4ccc(F)cc34)NC(=O)[C@H](Cc3c[nH]c4ccc(F)cc34)NC(=O)[C@@H](C)NC(=O)[C@H](NC(C)=O)Cc3cn(nn3)-c3ccc(cc3)C[C@@H](C(N)=O)NC(=O)[C@]3(C)CCCN3C2=O)cc1 [Compound 381] | 100 to 1000 | 1000 to 12100
COc1ccc(C[C@@H]2NC(=O)[C@H](CCC(=O)O)NC(=O)[C@@H]3C[C@H](N)CN3C(=O)[C@H](Cc3c[nH]c4ccc(F)cc34)NC(=O)[C@H](Cc3c[nH]c4ccc(F)cc34)NC(=O)[C@@H](C)NC(=O)[C@H](C)NC(=O)CCSCc3ccc(cc3)CSCCNC(=O)[C@]3(C)CCCN3C2=O)cc1 [Compound 382] (cyclo(A[dA][Trp(5-F)][Trp(5-F)][Pro(4S-NH2)]EY(Me)[αMeP][X17])) | 0.1 to 100 | 0.11 to 100
COc1ccc(C[C@@H]2NC(=O)[C@@H]([C@@H](C)O)NC(=O)[C@H](CC(=O)O)NC(=O)[C@H](Cc3c[nH]c4ccc(F)cc34)NC(=O)[C@H](Cc3cccc(CN)c3)NC(=O)[C@@H](C)NC(=O)[C@H](C)NC(=O)CCSCc3cccc(c3)CSCCNC(=O)[C@]3(C)CCCN3C2=O)cc1 [Compound 384] (cyclo(A[dA][Phe(3-CH2NH2)][Trp(5-F)]D[d(aThr)]Y(Me)[αMeP][X4])) | 21000 to 50000 | 21000 to 50000
COc1ccc(C[C@@H]2NC(=O)[C@H](Cc3c[nH]cn3)NC(=O)[C@H](CC(=O)O)NC(=O)[C@H](Cc3c[nH]c4ccc(F)cc34)NC(=O)[C@H](Cc3c[nH]c4ccc(F)cc34)NC(=O)[C@@H](C)NC(=O)[C@H](CCCCN)NC(=O)CCSCc3cccc(c3)CSCCNC(=O)[C@]3(C)CCCN3C2=O)cc1Cl [Compound 386] (cyclo(DH[X30][αMeP][X4]K[dA][Trp(5-F)][Trp(5-F)])) | 0.1 to 100 | 100 to 1000
COc1ccc(C[C@@H]2NC(=O)[C@H](Cc3c[nH]cn3)NC(=O)[C@H](CC(=O)O)NC(=O)[C@H](Cc3c[nH]c4ccc(F)cc34)NC(=O)[C@H](Cc3c[nH]c4ccc(F)cc34)NC(=O)[C@@H](C)NC(=O)[C@H](CCCCN)NC(=O)CCSCc3cccc(c3)CSCCNC(=O)[C@]3(C)CCCN3C2=O)cc1C [Compound 387] (cyclo(DH[X11][αMeP][X4]K[dA][Trp(5-F)][Trp(5-F)])) | 0.1 to 100 | 100 to 1000
COc1ccc(C[C@@H]2NC(=O)[C@H](Cc3cnc[nH]3)NC(=O)[C@H](CC(=O)O)NC(=O)[C@H](Cc3c[nH]c4ccc(F)cc34)NC(=O)[C@H](Cc3c[nH]c4ccc(F)cc34)NC(=O)[C@@H](C)NC(=O)Cc3cccc(c3)CNC(=O)c3ccc(cc3)C[C@@H](C(N)=O)NC(=O)[C@]3(C)CCCN3C2=O)cc1 [Compound 390] ([NHCH2(1,3-C6H4)CH2CO][dA][Trp(5-F)][Trp(5-F)]DHY(Me)[αMeP][Phe(4-COOH)]-NH2; lactam N-9) | 0.1 to 100 | 100 to 1000
COc1ccc(C[C@@H]2NC(=O)[C@H](Cc3cnc[nH]3)NC(=O)[C@H](CC(=O)O)NC(=O)[C@H](Cc3c[nH]c4ccc(F)cc34)NC(=O)[C@H](Cc3c[nH]c4ccc(F)cc34)NC(=O)[C@@H](C)NC(=O)Cc3ccc(cc3)CNC(=O)c3ccc(cc3)C[C@@H](C(N)=O)NC(=O)[C@]3(C)CCCN3C2=O)cc1 [Compound 391] ([X7][dA][Trp(5-F)][Trp(5-F)]DHY(Me)[αMeP][Phe(4-COOH)]-NH2; lactam N-9) | 0.1 to 100 | 100 to 1000
COc1ccc(C[C@@H]2NC(=O)[C@H](Cc3cnc[nH]3)NC(=O)[C@H](CC(=O)O)NC(=O)[C@H](Cc3c[nH]c4ccc(F)cc34)NC(=O)[C@H](Cc3c[nH]c4ccc(F)cc34)NC(=O)[C@@H](C)NC(=O)[C@H](CCCCN)NC(=O)[C@@H](NC(C)=O)CCCCCNC(=O)c3ccc(cc3)C[C@@H](C(N)=O)NC(=O)[C@]3(C)CCCN3C2=O)cc1 [Compound 393] (Ac-[hLys]K[dA][Trp(5-F)][Trp(5-F)]DHY(Me)[αMeP][Phe(4-COOH)]-NH2; lactam 1-10) | 0.1 to 100 | 100 to 1000
COc1ccc(C[C@@H]2NC(=O)[C@H](Cc3cnc[nH]3)NC(=O)[C@H](CC(=O)O)NC(=O)[C@H](Cc3c[nH]c4ccc(F)cc34)NC(=O)[C@H](Cc3c[nH]c4ccc(F)cc34)NC(=O)[C@H](C)NC(=O)[C@H](NC(C)=O)CCCc3cn(nn3)-c3ccc(cc3)C[C@@H](C(N)=O)NC(=O)[C@]3(C)CCCN3C2=O)cc1 [Compound 395] | 21000 to 50000 | 21000 to 50000
COc1ccc(C[C@@H]2NC(=O)[C@H](Cc3cnc[nH]3)NC(=O)[C@H](CC(=O)O)NC(=O)[C@H](Cc3c[nH]c4ccc(F)cc34)NC(=O)[C@H](Cc3c[nH]c4ccc(F)cc34)NC(=O)[C@@H](C)NC(=O)[C@H](NC(C)=O)CCCCNC(=O)Cc3ccc(cc3)CNC(=O)C[C@@H](C(N)=O)NC(=O)[C@]3(C)CCCN3C2=O)cc1 [Compound 397] (Ac-[dK][dA][Trp(5-F)][Trp(5-F)]DHY(Me)[αMeP]D-NH2; linker 1-9 via X6) | 1000 to 12100 | 1000 to 12100

The next lines start with the values.

IC50 [1] [nM] | IC50 [2] [nM] | Compound
0.1 to 100 | 100 to 1000 | C[C@H]1NC(=O)[C@H](CCCCN)NC(=O)CCSCc2cccc(c2)CSCCNC(=O)[C@]2(C)CCCN2C(=O)[C@H](Cc2ccc(O)cc2)N(C)C(=O)[C@H](Cc2c[nH]cn2)NC(=O)[C@H](C(C)(C)C(=O)O)NC(=O)[C@H](Cc2c[nH]c3ccc(F)cc23)NC(=O)[C@H](Cc2c[nH]c3ccc(F)cc23)NC1=O [Compound 383] (cyclo(H[NMeY][αMeP][X4]K[dA][Trp(5-F)][Trp(5-F)][Asp(3,3-Me2)]))
0.1 to 100 | 100 to 1000 | COc1ccc(C[C@@H]2NC(=O)C(CCCCC(=O)O)NC(=O)[C@@H]3C[C@H](N)CN3C(=O)[C@H](Cc3c[nH]c4ccc(F)cc34)NC(=O)[C@H](Cc3c[nH]c4ccc(F)cc34)NC(=O)[C@@H](C)NC(=O)[C@H](CCCN=[N+]=[N-])NC(=O)CCSCc3cccc(c3)CCSCNC(=O)[C@]3(C)CCCN3C2=O)cc1 (stereo partly drawn) [Compound 388] ([Mpa][Orn(N3)][dA][Trp(5-F)][Trp(5-F)][Pro(4S-NH2)][X47]Y(Me)[αMeP]; linker 1-C via X39)
0.1 to 100 | 100 to 1000 | COc1ccc(C[C@@H]2NC(=O)[C@H](Cc3cnc[nH]3)NC(=O)[C@H](CC(=O)O)NC(=O)[C@H](Cc3c[nH]c4ccc(F)cc34)NC(=O)[C@H](Cc3c[nH]c4ccc(F)cc34)NC(=O)[C@H](C)NC(=O)[C@H](NC(C)=O)CCc3cn(nn3)-c3ccc(cc3)C[C@@H](C(N)=O)NC(=O)[C@]3(C)CCCN3C2=O)cc1 [Compound 392]
100 to 1000 | 100 to 1000 | COc1ccc(C[C@@H]2NC(=O)[C@H](Cc3cnc[nH]3)NC(=O)[C@H](CC(=O)O)NC(=O)[C@H](Cc3c[nH]c4ccc(F)cc34)NC(=O)[C@H](Cc3c[nH]c4ccc(F)cc34)NC(=O)[C@@H](C)NC(=O)[C@H](NC(C)=O)CCCCNC(=O)Cc3cccc(c3)CNC(=O)C[C@@H](C(N)=O)NC(=O)[C@]3(C)CCCN3C2=O)cc1 [Compound 394] (Ac-[dK][dA][Trp(5-F)][Trp(5-F)]DHY(Me)[αMeP]D-NH2; linker 1-9 via X21)
100 to 1000 | 1000 to 12100 | COc1ccc(C[C@@H]2NC(=O)[C@H](Cc3cnc[nH]3)NC(=O)[C@H](CC(=O)O)NC(=O)[C@H](Cc3c[nH]c4ccc(F)cc34)NC(=O)[C@H](Cc3c[nH]c4ccc(F)cc34)NC(=O)[C@@H](C)NC(=O)CCCC(=O)NCCOc3ccc(cc3)C[C@@H](C(N)=O)NC(=O)[C@]3(C)CCCN3C2=O)cc1 [Compound 400] ([dA][Trp(5-F)][Trp(5-F)]DHY(Me)[αMeP][AEF]-NH2; linker N-8 via Glutaryl)
1000 to 12100 | 1000 to 12100 | COc1ccc(C[C@@H]2NC(=O)[C@H](Cc3cnc[nH]3)NC(=O)[C@H](CC(=O)O)NC(=O)[C@H](Cc3c[nH]c4ccc(F)cc34)NC(=O)[C@H](Cc3c[nH]c4ccc(F)cc34)NC(=O)[C@@H](C)NC(=O)Cc3ccc(cc3)NC(=O)CC(C(=O)O)NC(=O)[C@]3(C)CCCN3C2=O)cc1 (stereo partly drawn) [Compound 402] ([X41][dA][Trp(5-F)][Trp(5-F)]DHY(Me)[αMeP][ξD]-OH; lactam N-9)
